Experimental data from patent US9586956B2, “Isoquinoline and naphthyridine derivatives” (Genentech, Inc., priority 2012, dated 2017).

Tests used:
[1] = biological target: T1, purified human MAP4K4 kinase domain (Homo sapiens, UniProt O95819); test: MAP4K4 Inhibition Assay Protocol No. 1 (Caliper LabChip, moesin-derived peptide phosphorylation); assay type: biochemical; conditions: Assay 1; 1 nM enzyme, 10 uM ATP, 45 min
T1 construct: purified human MAP4K4 kinase domain
Outline: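 1 nM enzyme with 1 uM 5-carboxyfluorescein-labelled moesin peptide and 10 uM ATP in 50 mM Hepes pH 7.2, 10 mM MgCl2, 2% DMSO, 45 min at room temperature, then EDTA stop. Phosphorylated fraction of peptide measured by microfluidic mobility shift; IC50 from four-parameter fit.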

[2] = biological target: T1, purified human MAP4K4 kinase domain; test: MAP4K4 Inhibition Assay Protocol No. 2 (Z'-LYTE FRET); assay type: biochemical; conditions: Assay 2; 1 nM enzyme, 10 uM ATP, 60 min
Source text: The kinase activity of purified human MAP4K4 kinase domain was monitored using Z'-LYTE™ technology from Invitrogen to determine inhibition constants (IC50) of small molecule inhibitors. The Z'-LYTE™ biochemical assay employs a fluorescence-based, coupled-enzyme format and is based on the differential sensitivity of phosphorylated and non-phosphorylated peptides to proteolytic cleavage. In the primary reaction, the kinase transfers the gamma-phosphate of ATP to a single tyrosine, serine or threonine residue in a synthetic FRET-peptide. In the secondary reaction, a site-specific protease recognizes and cleaves non-phosphorylated FRET-peptides. Phosphorylation of FRET-peptides suppresses cleavage by the Development Reagent. Cleavage disrupts FRET between the donor (i.e., coumarin) and acceptor (i.e., fluorescein) fluorophores on the FRET-peptide, whereas uncleaved, phosphorylated FRET-peptides maintain FRET. To determine inhibition constants (IC50), compounds were serially diluted in DMSO and added to 10 uL kinase reactions containing 1 nM purified MAP4K4 enzyme, 2 uM ser/thr7 Z'-LYTE™ substrate, 10 uMATP, 50 mM Hepes (pH 7.5), 10 mM MgCl2, 1 mM EGTA, 0.01% Brij-35, and 2% DMSO. Reactions were incubated at room temperature in Corning Black 384 well plates (Corning#3573) for 60 minutes and stopped by the addition of 5 uL of Z'-LYTE™ development reagent A and incubated at room temp for 60 minutes. The plate is then analyzed on Perkin Elmer Envision by FRET mode. The high ratio of coumarin/fluorescein represents 0% phosphorylation rate while low ratio of coumarin/fluorescein represents 100% phosphorylation rate. The following equations are used to determine extent of peptide phosphorylation or inhibition: […]

T1 sequence (O95819 25-289 limits assumed): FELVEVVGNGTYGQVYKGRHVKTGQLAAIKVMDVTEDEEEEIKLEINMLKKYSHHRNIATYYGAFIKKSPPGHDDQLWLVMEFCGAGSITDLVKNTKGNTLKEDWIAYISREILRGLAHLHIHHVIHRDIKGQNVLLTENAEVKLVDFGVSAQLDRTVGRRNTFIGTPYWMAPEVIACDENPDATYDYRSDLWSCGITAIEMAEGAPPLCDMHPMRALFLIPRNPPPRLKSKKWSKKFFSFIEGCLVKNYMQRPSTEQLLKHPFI

Row | Structure (SMILES) | IC50 [1] [µM] | IC50 [2] [µM]
1 | Nc1ncc(CNC(=O)C2CC2)c2ccc(-c3cccc(F)c3)cc12 [Example 6, N-[[1-amino-7-(3-fluorophenyl)-4-isoquinolyl]methyl]cyclopropanecarboxamide] | 0.0414 | 0.0294
2 | CN1CC(NC(=O)c2cnc(N)c3cc(-c4cccc(F)c4)ccc23)C1 [Example 7, 1-amino-7-(3-fluorophenyl)-N-(1-methylazetidin-3-yl)isoquinoline-4-carboxamide] | 0.869 | 0.776
3 | CNC(=O)N1CC(NC(=O)c2cnc(N)c3cc(-c4cccc(F)c4)ccc23)C1 [Example 8, 1-amino-7-(3-fluorophenyl)-N-[1-(methylcarbamoyl)azetidin-3-yl]isoquinoline-4-carboxamide] | 0.0112 | 0.015
4 | Nc1ncc(C(=O)N[C@H]2C[C@H](O)C2)c2ccc(-c3cccc(F)c3)nc12 [Example 14b, 8-amino-2-(3-fluorophenyl)-N-(trans-3-hydroxycyclobutyl)-1,7-naphthyridine-5-carboxamide] | 0.00419 | 0.0044
5 | Nc1ncc(-c2ncn[nH]2)c2ccc(-c3cccc(F)c3)nc12 [Example 42, 2-(3-fluorophenyl)-5-(1H-1,2,4-triazol-5-yl)-1,7-naphthyridin-8-amine] |  | 0.00832
6 | Nc1ncc(-c2cn(CCN3CCOCC3)cn2)c2ccc(-c3cccc(F)c3)nc12 [Example 43, 2-(3-fluorophenyl)-5-(1-(2-morpholinoethyl)-1H-imidazol-4-yl)-1,7-naphthyridin-8-amine] |  | 0.00248
7 | Nc1ncc(C(=O)NC2CN(C(=O)C3CC3)C2)c2ccc(-c3ccnc(F)c3)nc12 [Example 44, 8-amino-N-(1-(cyclopropanecarbonyl)azetidin-3-yl)-2-(2-fluoropyridin-4-yl)-1,7-naphthyridine-5-Carboxamide] |  | 0.00263
8 | CCOC(=O)c1cnc(N)c2nc(-c3cccc(F)c3)ccc12 [Example 118, ethyl 8-amino-2-(3-fluorophenyl)-1,7-naphthyridine-5-carboxylate] | 0.000464 | 0.000648
9 | CCN1CC(NC(=O)c2cnc(N)c3cc(-c4cccc(F)c4)ccc23)C1 [Example 127, 1-amino-N-(1-ethylazetidin-3-yl)-7-(3-fluorophenyl) isoquinoline-4-carboxamide] | 1.2 | 0.756
10 | COCC(=O)N1CC(NC(=O)c2cnc(N)c3cc(-c4cccc(F)c4)ccc23)C1 [Example 128, 1-amino-7-(3-fluorophenyl)-N-[1-(2-methoxyacetyl)azetidin-3-yl]isoquinoline-4-carboxamide] | 0.0705 | 0.0724
11 | CNCc1cnc(N)c2cc(-c3cccc(F)c3)ccc12 [Example 129, 7-(3-fluorophenyl)-4-(methylaminomethyl) isoquinolin-1-amine] | 4.1 | 3
12 | Nc1ncc(C(=O)NC(CO)CNC(=O)NC2CC2)c2ccc(-c3cccc(F)c3)cc12 (centres unmarked) [Example 130, 1-amino-N-[1-[(cyclopropyl-carbamoylamino)methyl]-2-hydroxy-ethyl]-7-(3-fluorophenyl) isoquinoline-4-carboxamide] | 0.0609 | 0.0665
13 | CCNC(=O)N1CC(NC(=O)c2cnc(N)c3cc(-c4cccc(F)c4)ccc23)C1 [Example 131, 1-amino-N-[1-(ethylcarbamoyl)azetidin-3-yl]-7-(3-fluorophenyl) isoquinoline-4-carboxamide] | 0.168 | 0.174
14 | Nc1ncc(C(=O)NC2CN(C(=O)NC3CC3)C2)c2ccc(-c3cccc(F)c3)cc12 [Example 132, 1-amino-N-[1-(cyclopropyl-carbamoyl)azetidin-3-yl]-7-(3-fluorophenyl)isoquinoline-4-carboxamide] | 0.18 | 0.191
15 | CCNC(=O)NCC(CO)NC(=O)c1cnc(N)c2cc(-c3cccc(F)c3)ccc12 (centres unmarked) [Example 133, 1-amino-N-[1-[(ethylcarbamoyl-amino)methyl]-2-hydroxy-ethyl]-7-(3-fluorophenyl) isoquinoline-4-carboxamide] | 0.0602 | 0.0919
16 | Nc1ncc(CNS(=O)(=O)C2CC2)c2ccc(-c3cccc(F)c3)cc12 [Example 134, N-[[1-amino-7-(3-fluoro-phenyl)-4-isoquinolyl]methyl] cyclopropanesulfonamide] |  | 0.155
17 | CNC(=O)N1CCC(NC(=O)c2cnc(N)c3cc(-c4cccc(F)c4)ccc23)C1 (centres unmarked) [Example 135, 1-amino-7-(3-fluorophenyl)-N-[1-(methylcarbamoyl)pyrrolidin-3-yl] isoquinoline-4-carboxamide] |  | 0.162
18 | Nc1ncc(CNC(=O)c2ccccc2)c2ccc(-c3cccc(F)c3)cc12 [Example 136, N-[[1-amino-7-(3-fluoro-phenyl)-4-isoquinolyl]methyl]benzamide] |  | 0.919

Row | Structure (SMILES) | IC50 [1] [µM] | IC50 [2] [µM]
19 | Nc1ncc(-c2cc(CO)ccn2)c2ccc(-c3cccc(F)c3)cc12 [Example 137, [2-[1-amino-7-(3-fluoro-phenyl)-4-isoquinolyl]-4-pyridyl]methanol] |  | 0.0106
20 | Cn1ccc(-c2cnc(N)c3cc(-c4cccc(F)c4)ccc23)n1 [Example 138, 7-(3-fluorophenyl)-4-(1-methylpyrazol-3-yl) isoquinolin-1-amine] |  | 0.0145
21 | CCOC(=O)c1cnc(N)c2nc(-c3cccc(OC(F)(F)F)c3)ccc12 [Example 139, ethyl 8-amino-2-[3-(trifluoro-methoxy)phenyl]-1,7-naphthyridine-5-carboxylate] |  | 0.00216
22 | CCOC(=O)c1cnc(N)c2nc(-c3cccc(OC(F)F)c3)ccc12 [Example 140, ethyl 8-amino-2-[3-(difluoro-methoxy)phenyl]-1,7-naphthyridine-5-carboxylate] |  | 0.00769
23 | CCOC(=O)c1cnc(N)c2nc(-c3ccnc(C)c3)ccc12 [Example 141, ethyl 8-amino-2-(2-methyl-4-pyridyl)-1,7-naphthyridine-5-carboxylate] |  | 0.00339
24 | CCOC(=O)c1cnc(N)c2nc(-c3cccc(S(=O)(=O)N(C)C)c3)ccc12 [Example 142, ethyl 8-amino-2-[3-(dimethyl-sulfamoyl)phenyl]-1,7-naphthyridine-5-carboxylate] |  | 0.48
25 | CCOC(=O)c1cnc(N)c2nc(-c3cccc(S(C)(=O)=O)c3)ccc12 [Example 143, ethyl 8-amino-2-(3-methyl-sulfonylphenyl)-1,7-naphthyridine-5-carboxylate] |  | 0.0636
26 | CCOC(=O)c1cnc(N)c2nc(-c3cccc(C(=O)N(C)C)c3)ccc12 [Example 144, ethyl 8-amino-2-[3-(dimethyl-carbamoyl)phenyl]-1,7-naphthyridine-5-carboxylate] |  | 0.0031
27 | CCOC(=O)c1cnc(N)c2nc(-c3cc(F)cc(F)c3)ccc12 [Example 145, ethyl 8-amino-2-(3,5-difluoro-phenyl)-1,7-naphthyridine-5-carboxylate] |  | 0.00184
28 | CCOC(=O)c1cnc(N)c2nc(-c3cccc(OC(C)C)c3)ccc12 [Example 146, ethyl 8-amino-2-(3-isopropoxy-phenyl)-1,7-naphthyridine-5-carboxylate] |  | 0.0326
29 | CCOC(=O)c1cnc(N)c2nc(-c3cccc(C#N)c3)ccc12 [Example 147, ethyl 8-amino-2-(3-cyanophenyl)-1,7-naphthyridine-5-carboxylate] |  | 0.00145
30 | CCOC(=O)c1cnc(N)c2nc(-c3cccc(OC)c3)ccc12 [Example 148, ethyl 8-amino-2-(3-methoxy-phenyl)-1,7-naphthyridine-5-carboxylate] |  | 0.00853
31 | CCOC(=O)c1cnc(N)c2nc(-c3ccc(Cl)cc3)ccc12 [Example 149, ethyl 8-amino-2-(4-chlorophenyl)-1,7-naphthyridine-5-carboxylate] |  | 0.0278
32 | CCOC(=O)c1cnc(N)c2nc(-c3ccc(OC)cc3)ccc12 [Example 150, ethyl 8-amino-2-(4-methoxy-phenyl)-1,7-naphthyridine-5-carboxylate] |  | 0.0212
33 | CCOC(=O)c1cnc(N)c2nc(-c3ccc(F)cc3C)ccc12 [Example 153, ethyl 8-amino-2-(4-fluoro-2-methyl-phenyl)-1,7-naphthyridine-5-carboxylate] |  | 0.00652
34 | CCOC(=O)c1cnc(N)c2nc(-c3ccc(Cl)cc3Cl)ccc12 [Example 154, ethyl 8-amino-2-(2,4-dichloro-phenyl)-1,7-naphthyridine-5-carboxylate] |  | 0.382
35 | CCOC(=O)c1cnc(N)c2nc(-c3ccc(OC)cc3Cl)ccc12 [Example 155, ethyl 8-amino-2-(2-chloro-4-methoxy-phenyl)-1,7-naphthyridine-5-carboxylate] |  | 0.134
